In EP4125905B1, “REGIMEN FOR TREATING A NEISSERIA GONORRHOEAE INFECTION WITH GEPOTIDACIN” (GlaxoSmithKline Intellectual Property Development Limited, priority 2020, dated 2021):
In brackets after ≈: the same amount, converted by molar mass. Like-named read-outs stand apart in the source and are kept apart here.

Columns and labels:
NG clinical isolate [1] = assay: microbe, parasite or virus in culture; assay type: cell-based; conditions: Neisseria gonorrhoeae
NG isolate = assay type: cell-based, Neisseria gonorrhoeae
Procedure: The results were discussed in VanScoy BD et al., A Hollow-Fiber Infection Model to Evaluate the Prevention of On- Therapy Resistance of Neisseria gonorrhoeae to Gepotidacin.
10 mL of an initial bacterial density of 10^6 colony forming units (CFU)/mL was inoculated into the hollow-fiber cartridge (Fibercell Systems, Frederick, MD), utilizing modified FB medium.
Samples were collected for observation of simulated pharmacokinetic profiles and enumeration of bacterial burden over the study duration. All bacterial samples were plated on drug-free and agar supplemented with 2 x the agar MIC value of each respective challenge compound.

urogenital NG = conditions: cited from earlier work
[2] = Single-dose saliva, urine and plasma PK of gepotidacin in renal impairment and matched controls; assay type: in vivo, human
Procedure: (§1) Gepotidacin exposures were assessed in plasma and other matrices, such as urine, saliva, epithelial lining fluid (ELF), Alveolar Macrophages (AM), cervix, rectum and pharynx, as follows: • 1. Plasma, Epithelial Lining Fluid (ELF) and Alveolar Macrophage (AM) samples: A study to evaluate plasma and pulmonary pharmacokinetics (PK) following intravenous administration of gepotidacin in healthy adult subjects was conducted (see M Hossain, EF Dumont. Population Pharmacokinetic Modeling of Plasma and Epithelial Lining Fluid Data for a Novel Antimicrobial Compound. 54th Annual Interscience Conference on Antimicrobial Agents and Chemotherapy Meeting, 5-9 September 2014, Washington, D.C., USA). • 2. Saliva, Urine and plasma samples: • a. A single-dose study to assess the PK of oral gepotidacin in male and female adult participants with varying degrees of hepatic impairment and in matched control participants with normal hepatic function (J. Hands et al. Pharmacokinetics of Gepotidacin in Subjects with Hepatic Impairment. ID Week, 2-6 October 2019, Washington DC, USA) • b. A single-dose study to assess the PK of gepotidacin in adult subjects with varying degrees of renal impairment and in matched control subjects with normal renal function • 3. Urine, plasma, cervix, rectum and pharynx swabs: In a Phase 2a, single-center, single-arm, open-label study in the Unites States from July 2018 to January 2019 (see Overcash et al., Open Forum Infectious Diseases, Volume 6, Issue Supplement 2, October 2019, Page S539, https://doi.org/10.1093/ofid/ofz360.1343), a total of 22 female participants with uncomplicated Urinary Tract Infection (uUTI) were enrolled and evaluated for pharmacokinetics (PK), safety, and clinical efficacy. Participants were confined to the clinic from baseline (Days -1 to 1 predose) through on-therapy (Days 1 to 5) and returned as outpatients for test-of-cure (TOC; Days 10 to 13) and follow-up (Day 28t3). Participants received oral gepotidacin 1,500 mg twice daily (BID) for 5 days. […] The majority of participants were white, age ranged from 19 to 60 years, and body mass index ranged from 20.9 to 37.9 kg/m^2. The number of past uUTI episodes ranged from 0 to 10 over the past 12 months across participants; the majority of participants reported ≤2 episodes. The mean total clinical symptom score at baseline was 7.9 (range: 4 to 12). All participants reported frequency and urgency, and all but 1 participant (5%) reported dysuria. Gepotidacin exposures in urine, cervix, rectum and pharynx were assessed.
(§2) Saliva, Urine and Plasma concentrations were determined after administration of gepotidacin 750 mg IV (healthy and renally impaired subjects) and 1500 mg orally (healthy and hepatically impaired subjects, as well as uUTI patients). […]

NG clinical isolate [3] = assay: MIC determination in fastidious broth (FB) medium modified to lack agarose; assay type: cell-based; conditions: Neisseria gonorrhoeae, read-out: gepotidacin broth MIC
Procedure: The NG clinical isolate evaluated was known to be ciprofloxacin-resistant (minimum inhibitory concentration [MIC]= 2 mg/L), susceptible to ceftriaxone (MIC = 0.004 mg/L), and with a gepotidacin agar/broth MIC of 1/0.5 mg/L. The isolate was collected during the Phase 2 clinical study mentioned above, and contained the mutation, ParC D86N.
In order to evaluate the MIC of each challenge compound under the liquid conditions utilized in the HFIM, MIC values were determined using fastidious broth (FB) medium modified to lack agarose.

[4] = Phase 2a study in female participants with uUTI: urine, plasma, cervical, rectal and pharyngeal swab PK and safety; assay type: in vivo, human
Procedure: as §1
Plasma, cervix, rectum and pharynx swabs were collected after administration of gepotidacin 1500 mg BID to uUTI patients. […] TABLE 1 Summary of gepotidacin cervical, rectal, pharyngeal, and free plasma concentration time data (µg/ml) (pharmacokinetic population)

urogenital NG isolates = conditions: cited from earlier work
[5] = Plasma and pulmonary (ELF, AM) pharmacokinetics after intravenous gepotidacin in healthy adult subjects; assay type: in vivo, human
Procedure: as §1
Plasma, Epithelial Lining Fluid (ELF) and Alveolar Macrophage (AM) PK were assessed following a single IV infusion of 1000 mg gepotidacin over 2 hours. […] Concentrations in AM and ELF changed in a similar manner as in plasma over the 12-hour sampling period.

[6] = Single-dose saliva, urine and plasma PK of oral gepotidacin in hepatic impairment and matched controls; assay type: in vivo, human; conditions: for urinary exposure (AUC[0-48]) relative to matched healthy controls: 1500 mg orally
Procedure: Gepotidacin exposures were assessed in plasma and other matrices, such as urine, saliva, epithelial lining fluid (ELF), Alveolar Macrophages (AM), cervix, rectum and pharynx, as follows: • 1. Plasma, Epithelial Lining Fluid (ELF) and Alveolar Macrophage (AM) samples: A study to evaluate plasma and pulmonary pharmacokinetics (PK) following intravenous administration of gepotidacin in healthy adult subjects was conducted (see M Hossain, EF Dumont. Population Pharmacokinetic Modeling of Plasma and Epithelial Lining Fluid Data for a Novel Antimicrobial Compound. 54th Annual Interscience Conference on Antimicrobial Agents and Chemotherapy Meeting, 5-9 September 2014, Washington, D.C., USA). • 2. Saliva, Urine and plasma samples: • a. A single-dose study to assess the PK of oral gepotidacin in male and female adult participants with varying degrees of hepatic impairment and in matched control participants with normal hepatic function (J. Hands et al. Pharmacokinetics of Gepotidacin in Subjects with Hepatic Impairment. ID Week, 2-6 October 2019, Washington DC, USA) • b. A single-dose study to assess the PK of gepotidacin in adult subjects with varying degrees of renal impairment and in matched control subjects with normal renal function • 3. Urine, plasma, cervix, rectum and pharynx swabs: In a Phase 2a, single-center, single-arm, open-label study in the Unites States from July 2018 to January 2019 (see Overcash et al., Open Forum Infectious Diseases, Volume 6, Issue Supplement 2, October 2019, Page S539, https://doi.org/10.1093/ofid/ofz360.1343), a total of 22 female participants with uncomplicated Urinary Tract Infection (uUTI) were enrolled and evaluated for pharmacokinetics (PK), safety, and clinical efficacy. […] Gepotidacin exposures in urine, cervix, rectum and pharynx were assessed.
as §2

[7] = Safety and pharmacokinetics in healthy adults and adolescents; assay type: in vivo, human
Procedure: Healthy adults and adolescents within the age ranges of 19-64 and 12-17 years old, respectively, participated in the study.
In Part 1 of the study, gepotidacin was administered with food to healthy adults (≥ 18 years) in period 1 (1500 mg oral single dose), followed by period 2 (3000 mg x 2 oral doses Q12h) and period 3 (3000 mg x 2 oral doses Q6h).
In Part 2 of the study, gepotidacin was administered with food to adolescents (12 to < 18 years) at the same dose regimens as period 1 (1500 mg oral single dose) and period 3 (3000 mg x 2 oral doses Q6h).

[8] = 1500 mg BID, Day 4, 2 hours postdose
[9] = single IV infusion of 1000 mg over 2 hours, AM versus ELF
[10] = Period 1, 1500 mg oral single dose

## CO/N=C(\C(=O)N[C@@H]1C(=O)N2C(C(=O)O)=C(CSc3nc(=O)c(=O)[nH]n3C)CS[C@H]12)c1csc(N)n1 [ceftriaxone, reference compound]
NG clinical isolate [1]; read-out: minimum inhibitory concentration [MIC]
  MIC: 0.004 µg/mL (≈ 0.00721 µM)
NG isolate; isolate resistant to ciprofloxacin and susceptible to ceftriaxone, simulated 0.5 g oral ciprofloxacin, 0.25 g IM ceftriaxone
  performance of controls in the hollow fibre infection model: performed as expected

## O=c1ccc2ncc(=O)n3c2n1C[C@H]3CN1CCC(NCc2cc3c(cn2)OCCC3)CC1 [gepotidacin, (2R)-2-({4-[(3,4-Dihydro-2H-pyrano[2,3-c]pyridin-6-ylmethyl)amino]-1-piperidinyl}methyl)-1,2-dihydro-3H,8H-2a,5,8a-triazaacenaphthylene-3,8-dione]
Urogenital NG; Phase II study, total
  participants who failed therapy at the urogenital body site: 3
Urogenital NG; of the 8 participants with D86N-positive baseline urogenital NG isolates
  microbiological successes (bacterial eradication): 5
Urogenital NG; single oral dose 1.5g (1500 mg)
  efficacy (bacterial eradication) against urogenital infection caused by NG: ≥ 95%
Urogenital NG; single oral dose 3g (3000 mg)
  efficacy (bacterial eradication) against urogenital infection caused by NG: ≥ 95%
[2]; ESRD subjects on hemodialysis
  gepotidacin dose excreted in the urine: Less than 2%
[2]; End-Stage Renal Disease (ESRD) subjects not on hemodialysis
  gepotidacin dose removed in the urine (fe%): 7.9%
[2]; moderate renal impairment subjects
  gepotidacin dose removed in the urine (fe%): 22.1%
[2]; normal renal function subjects
  gepotidacin dose removed in the urine (fe%): 37.4%
NG clinical isolate [3]
  MIC: 0.5 µg/mL (≈ 1.11 µM)
[4]; [8]
  Cervical concentration, Maximum: 4.25 µg/mL
  Cervical concentration, Mean: 1.03 µg/mL
  Cervical concentration, Minimum: 0.0190 µg/mL
  Free plasma concentration, Maximum: 7.50 µg/mL
  Free plasma concentration, Mean: 3.94 µg/mL
  Free plasma concentration, Minimum: 0.938 µg/mL
  Pharyngeal concentration, Maximum: 0.527 µg/mL
  Pharyngeal concentration, Mean: 0.140 µg/mL
  Pharyngeal concentration, Minimum: 0.0118 µg/mL
  Rectal concentration, Maximum: 90.90 µg/mL
  Rectal concentration, Mean: 12.3 µg/mL
  Rectal concentration, Minimum: 0.0989 µg/mL
[4]; 1500 mg BID, Day 4, Predose
  Cervical concentration, Maximum: 5.94 µg/mL
  Cervical concentration, Mean: 1.30 µg/mL
  Cervical concentration, Minimum: 0.0601 µg/mL
  Free plasma concentration, Maximum: 1.33 µg/mL
  Free plasma concentration, Mean: 0.618 µg/mL
  Free plasma concentration, Minimum: 0.308 µg/mL
  Pharyngeal concentration, Maximum: 0.165 µg/mL
  Pharyngeal concentration, Mean: 0.0330 µg/mL
  Pharyngeal concentration, Minimum: 0.00275 µg/mL
  Rectal concentration, Maximum: 36.30 µg/mL
  Rectal concentration, Mean: 6.04 µg/mL
  Rectal concentration, Minimum: 0.0678 µg/mL
[4]; oral 1,500 mg BID for 5 days, uUTI participants
  discontinuations due to adverse events (AEs): no discontinuations due to adverse events
[4]; uUTI patients, 1500 mg BID, from Day 3 onwards
  urine Ctau exposures: 322 to 352 µg/mL
[4]; uUTI patients, remained above MIC over the 12-hour dosing interval
  minimum gepotidacin urine concentrations: > 4 µg/mL
Urogenital NG isolates; 2 microbiological successes with D86N-positive baseline organisms
  baseline gepotidacin MIC: 1 µg/mL
Urogenital NG isolates; 2 posttreatment isolates that had become resistant
  TOC gepotidacin MICs: ≥ 32 µg/mL
[5]; human, alveolar macrophages / free plasma, single IV infusion of 1000 mg over 2 hours, read-out: AUC(0-12) ratio of AM to free plasma
  Kp: 178
[5]; human, epithelial lining fluid / free plasma, single IV infusion of 1000 mg over 2 hours, read-out: AUC(0-12) ratio of ELF to free plasma
  Kp: 1.84
[5]; human, plasma, read-out: gepotidacin free fraction
  fraction unbound: 0.67
[5]; [9]
  AM exposure AUC(0-12), higher than in ELF: ~97 fold
  AM exposure Cmax, higher than in ELF: approximately 120 fold
[6]; human, saliva / unbound plasma, stated across the renal and hepatic impairment studies, read-out: ratio of saliva AUC to unbound plasma AUC (RAUC)
  Kp: ≥ 0.75
[6]; moderate hepatic impairment
  urinary exposure (AUC[0-48]) relative to matched healthy controls: approximately 3.2 fold
[6]; severe hepatic impairment
  urinary exposure (AUC[0-48]) relative to matched healthy controls: ~3.9 fold
NG clinical isolate [1]; read-out: gepotidacin MIC
  MIC: 1 µg/mL (≈ 2.23 µM)
NG clinical isolate [1]; read-out: gepotidacin agar MIC
  MIC: 1 µg/mL (≈ 2.23 µM)
[7]; 1500 mg oral single dose, adults and adolescents, few mild GI AEs
  tolerability: generally well tolerated
[7]; [10]
  maximum concentration (Cmax), adolescents compared to adults: similar
  median area under the curve (AUC), adolescents compared to adults: slightly higher
[7]; Period 3, Q6h regimen
  AUC following the second dose, adolescents versus adults: higher
  Cmax following the second dose, adolescents versus adults: similar
[7]; adolescents Q6h, 3000 mg x 2 oral doses
  subjects above the value of potential clinical concern, observed: 58%
[7]; adults Q6h, 3000 mg x 2 oral doses
  subjects above the value of potential clinical concern, observed: 46%
[7]; adults Q12h, 3000 mg x 2 oral doses
  subjects above the value of potential clinical concern, observed: 15%
[7]; adults, 3000 mg dose level
  AUC0-t exposures following the first dose, Q12 versus Q6h: similar
[7]; adults, 3000 mg x 2 oral doses
  accumulation ratios, Q6h as compared to Q12h: Higher
[7]; in vivo
  safety issues related to QT or AchE-I: No observed safety issues
NG isolate; gepotidacin-resistant subpopulation on Day 7
  doses preventing amplification of resistance within the system: ≥ 4.5 g
NG isolate; including 2 doses of 3g administered 8 or 12 hours apart
  total daily doses that prevented resistance amplification: ≥ 4500 mg
NG isolate; over the seven-day period, simulated single oral doses 0.75 to 12 g
  doses sterilizing the system: ≥ 4.5 g
